Measured values reported in ChEMBL document CHEMBL4229455, “Synthesis and anticancer activity of novel bisindolylhydroxymaleimide derivatives with potent GSK-3 kinase inhibition” (Bioorg Med Chem, 2018).

Columns and labels:
[1] = target: T1, Serine/threonine-protein kinase haspin (Homo sapiens, UniProt Q8TF76); assay: Inhibition of recombinant human haspin kinase domain expressed in bacteria using histone H3 (1 to 21 residues) peptide as substrate in presence of [gamma-33P]ATP
T1 sequence (Q8TF76 whole entry): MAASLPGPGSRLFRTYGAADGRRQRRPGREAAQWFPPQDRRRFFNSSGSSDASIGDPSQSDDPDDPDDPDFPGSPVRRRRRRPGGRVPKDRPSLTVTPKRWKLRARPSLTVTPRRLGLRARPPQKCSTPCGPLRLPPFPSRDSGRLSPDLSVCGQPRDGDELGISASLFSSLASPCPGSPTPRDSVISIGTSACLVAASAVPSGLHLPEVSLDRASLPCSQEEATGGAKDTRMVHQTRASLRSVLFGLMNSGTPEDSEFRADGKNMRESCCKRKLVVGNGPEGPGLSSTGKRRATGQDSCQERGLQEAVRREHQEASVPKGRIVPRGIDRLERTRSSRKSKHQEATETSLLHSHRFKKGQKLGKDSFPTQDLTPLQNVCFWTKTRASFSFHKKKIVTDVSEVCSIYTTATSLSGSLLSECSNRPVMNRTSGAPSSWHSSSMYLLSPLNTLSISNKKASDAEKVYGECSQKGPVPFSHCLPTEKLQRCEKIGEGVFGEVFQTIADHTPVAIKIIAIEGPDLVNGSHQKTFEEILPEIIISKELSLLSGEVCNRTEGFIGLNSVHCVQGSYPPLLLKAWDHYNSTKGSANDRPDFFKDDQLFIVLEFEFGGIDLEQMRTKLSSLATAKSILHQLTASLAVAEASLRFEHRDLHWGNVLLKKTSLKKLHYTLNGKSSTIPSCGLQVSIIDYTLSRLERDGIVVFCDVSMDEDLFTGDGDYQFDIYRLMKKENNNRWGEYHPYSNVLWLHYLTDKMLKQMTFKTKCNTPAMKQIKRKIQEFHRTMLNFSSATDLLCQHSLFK

Aurora kinase B [2] = target: T2, Aurora kinase B (Homo sapiens, UniProt Q96GD4); assay: Inhibition of recombinant full length human aurora B expressed in baculovirus infected Sf9 insect cells using MBP as substrate in presence of [gamma-33P]ATP
T2 sequence (Q96GD4 whole entry): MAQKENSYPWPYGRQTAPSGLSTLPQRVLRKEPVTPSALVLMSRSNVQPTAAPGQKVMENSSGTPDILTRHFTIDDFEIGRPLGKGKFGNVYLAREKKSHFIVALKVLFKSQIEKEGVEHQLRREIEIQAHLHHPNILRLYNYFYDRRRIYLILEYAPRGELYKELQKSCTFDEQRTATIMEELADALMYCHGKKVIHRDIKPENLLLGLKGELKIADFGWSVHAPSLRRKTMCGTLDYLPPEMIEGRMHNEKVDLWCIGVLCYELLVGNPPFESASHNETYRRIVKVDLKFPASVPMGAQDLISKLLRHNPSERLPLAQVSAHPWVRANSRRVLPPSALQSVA

CDK2/Cyclin A2 = CDK2/Cyclin A2 (Homo sapiens, UniProt P24941); assay: Inhibition of full length human CDK2/cyclin A using histone H1 as substrate in presence of [gamma-33P]ATP; assay type: protein-complex assay
[3] = target: Dual specificity tyrosine-phosphorylation-regulated kinase 1A (Rattus norvegicus, UniProt Q63470); assay: Inhibition of recombinant rat DYRK1A kinase domain expressed in bacteria using KKISGRLSPIMTEQ as substrate in presence of [gamma-33P]ATP
[4] = target: Serine/threonine-protein kinase pim-1 (Homo sapiens, UniProt P11309); assay: Inhibition of recombinant full length human PIM1 expressed in bacteria using histone H1 as substrate in presence of [gamma-33P]ATP
Serine/threonine-protein kinase pim-1, sequence (P11309 whole entry, the tested form may be a part): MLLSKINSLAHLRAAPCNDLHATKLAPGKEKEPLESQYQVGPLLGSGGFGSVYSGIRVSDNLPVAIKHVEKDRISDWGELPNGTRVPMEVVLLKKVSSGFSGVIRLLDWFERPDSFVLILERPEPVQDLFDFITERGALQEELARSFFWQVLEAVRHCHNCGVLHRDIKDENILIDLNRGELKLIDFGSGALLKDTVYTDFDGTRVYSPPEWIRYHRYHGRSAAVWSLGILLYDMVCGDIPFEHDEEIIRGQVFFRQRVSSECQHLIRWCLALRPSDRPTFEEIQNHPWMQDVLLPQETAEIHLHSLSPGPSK

[5] = target: T3, Serine/threonine-protein kinase haspin (Homo sapiens) (UniProt Q8TF76); assay: Inhibition of recombinant human haspin kinase domain expressed in bacteria assessed as residual activity at 10 uM using histone H3 (1 to 21 residues) peptide as substrate in presence of [gamma-33P]ATP
T3 sequence (whole entry): T1 sequence (Q8TF76 whole entry)

Aurora kinase B [6] = target: T2, Aurora kinase B; assay: Inhibition of recombinant full length human aurora B expressed in baculovirus infected Sf9 insect cells assessed as residual activity at 10 uM using MBP as substrate in presence of [gamma-33P]ATP
[7] = target: Glycogen synthase kinase-3 (Sus scrofa) (UniProt B2LUN4+I6LNT8); assay: Inhibition of domestic porcine brain full length GSK-3alpha/beta assessed as residual activity at 10 uM using GS-1 as substrate in presence of [gamma-33P]ATP; conditions: Sus scrofa domesticus
A549 = assay: Cytotoxicity against human A549 cells assessed as cell growth at 10 uM after 48 hrs by SRB assay relative to control; assay type: functional; conditions: A549, 48 h, read-out: Activity
NCI-H226 = assay: Cytotoxicity against human NCI-H226 cells assessed as cell growth at 10 uM after 48 hrs by SRB assay relative to control; assay type: functional; conditions: NCI-H226, 48 h, read-out: Activity
NCI-H23 = assay: Cytotoxicity against human NCI-H23 cells assessed as cell growth at 10 uM after 48 hrs by SRB assay relative to control; assay type: functional; conditions: NCI-H23, 48 h, read-out: Activity
NCI-H460 = assay: Cytotoxicity against human NCI-H460 cells assessed as cell growth at 10 uM after 48 hrs by SRB assay relative to control; assay type: functional; conditions: NCI-H460, 48 h, read-out: Activity
HCT-15 = assay: Cytotoxicity against human HCT15 cells assessed as cell growth at 10 uM after 48 hrs by SRB assay relative to control; assay type: functional; conditions: HCT-15, 48 h, read-out: Activity
LOX IMVI = assay: Cytotoxicity against human LOXIMVI cells assessed as cell growth at 10 uM after 48 hrs by SRB assay relative to control; assay type: functional; conditions: read-out: Activity
SK-MEL-2 = assay: Cytotoxicity against human SK-MEL-2 cells assessed as cell growth at 10 uM after 48 hrs by SRB assay relative to control; assay type: functional; conditions: SK-MEL-2, 48 h, read-out: Activity
UACC-257 = assay: Cytotoxicity against human UACC257 cells assessed as cell growth at 10 uM after 48 hrs by SRB assay relative to control; assay type: functional; conditions: UACC-257, 48 h, read-out: Activity
UACC-62 = assay: Cytotoxicity against human UACC62 cells assessed as cell growth at 10 uM after 48 hrs by SRB assay relative to control; assay type: functional; conditions: UACC-62, 48 h, read-out: Activity
OVCAR-4 = assay: Cytotoxicity against human OVCAR4 cells assessed as cell growth at 10 uM after 48 hrs by SRB assay relative to control; assay type: functional; conditions: OVCAR-4, 48 h, read-out: Activity
A498 = assay: Cytotoxicity against human A498 cells assessed as cell growth at 10 uM after 48 hrs by SRB assay relative to control; assay type: functional; conditions: A498, 48 h, read-out: Activity
SN12C = assay: Cytotoxicity against human SN12C cells assessed as cell growth at 10 uM after 48 hrs by SRB assay relative to control; assay type: functional; conditions: read-out: Activity
TK-10 = assay: Cytotoxicity against human TK10 cells assessed as cell growth at 10 uM after 48 hrs by SRB assay relative to control; assay type: functional; conditions: TK-10, 48 h, read-out: Activity
PC-3 = assay: Cytotoxicity against human PC3 cells assessed as cell growth at 10 uM after 48 hrs by SRB assay relative to control; assay type: functional; conditions: PC-3, 48 h, read-out: Activity
MCF7 = assay: Cytotoxicity against human MCF7 cells assessed as cell growth at 10 uM after 48 hrs by SRB assay relative to control; assay type: functional; conditions: MCF7, 48 h, read-out: Activity
BT-549 = assay: Cytotoxicity against human BT549 cells assessed as cell growth at 10 uM after 48 hrs by SRB assay relative to control; assay type: functional; conditions: BT-549, 48 h, read-out: Activity
SR = assay: Cytotoxicity against human SR cells assessed as cell growth at 10 uM after 48 hrs by SRB assay relative to control; assay type: functional; conditions: read-out: Activity

| SMILES | IC50 [1] | IC50 (Aurora kinase B [2]) | IC50 (CDK2/Cyclin A2) | IC50 [3] | IC50 [4] | Activity [5] | Activity (Aurora kinase B [6]) | Activity [7] | growth at 10 µM (A549) | growth at 10 µM (NCI-H226) | growth at 10 µM (NCI-H23) | growth at 10 µM (NCI-H460) | growth at 10 µM (HCT-15) | growth at 10 µM (LOX IMVI) | growth at 10 µM (UACC-62) | growth at 10 µM (OVCAR-4) | growth at 10 µM (A498) | growth at 10 µM (SN12C) | growth at 10 µM (TK-10) | growth at 10 µM (MCF7) | other results |
| --- | --- | --- | --- | --- | --- | --- | --- | --- | --- | --- | --- | --- | --- | --- | --- | --- | --- | --- | --- | --- | --- |
| N#CCCCCCn1cc(C2=C(c3cn(CCCCCC#N)c4ccccc34)C(=O)N(O)C2=O)c2ccccc21 | > 10 µM | > 10 µM | > 10 µM | > 10 µM | > 10 µM | 99% | 75% | 5% | 51 to 73.6% | 44 to 70% | 38 to 76.9% | 28 to 72.7% | 21 to 70.8% | 19 to 30.5% | 14 to 53.3% | 91.6% | 16 to 69.2% | 47 to 88.2% | 70 to 84.2% | 14 to 39.9% | growth at 10 µM (SK-MEL-2): 8 to 68.7%; growth at 10 µM (UACC-257): 56 to 82.1%; growth at 10 µM (PC-3): 29 to 70.3%; growth at 10 µM (BT-549): 16 to 56% |
| Cn1cc(C2=C(c3cn(CCCCCC(=O)O)c4ccccc34)C(=O)N(O)C2=O)c2ccccc21 | > 10 µM | > 10 µM | 4 µM | 1 µM | > 10 µM | 103% | 71% | 2% | 94.6% | 91.3% | 95.2% | 108% | 96.5% | 80% | 99% | 94.5% | 91.9% | 95.2% | 107% | 90% | growth at 10 µM (SR): 89.6%; growth at 10 µM (UACC-257): 102%; growth at 10 µM (PC-3): 76.6%; growth at 10 µM (BT-549): 103% |
| N#CCCCCCn1cc(C2=C(c3cn(CCCCCC#N)c4ccccc34)C(=O)NC2=O)c2ccccc21 | > 10 µM | > 10 µM | 2.5 µM | 0.62 µM | > 10 µM | 134% | 83% | 11% | 85.6% | 80.4% | 97.1% | 86.8% | 69.4% | 69.5% | 99.3% | 81.2% | 54.5% | 87.7% | 101% | 48.9% | growth at 10 µM (SK-MEL-2): 96.5%; growth at 10 µM (UACC-257): 136%; growth at 10 µM (PC-3): 58%; growth at 10 µM (BT-549): 73.6% |
| Cn1cc(C2=C(c3c[nH]c4ccccc34)C(=O)N(O)C2=O)c2ccccc21 | > 10 µM | > 10 µM | > 10 µM | > 10 µM | 5 µM | 112% | 79% | -18% | 91.9% | 76.9% | 76.9% | 87.4% | 74.8% | 51% | 77.4% | 103% | 79.1% | 97.8% | 120% | 30.9% | growth at 10 µM (SR): 30.9%; growth at 10 µM (SK-MEL-2): 76.4%; growth at 10 µM (PC-3): 78.7%; growth at 10 µM (BT-549): 82.7% |
| Cn1cc(C2=C(c3cn(C)c4ncccc34)C(=O)NC2=O)c2ccccc21 | > 10 µM | > 10 µM | 0.1 µM | > 10 µM | 2 µM | 101% | 84% | -21% | 21 to 28.8% |  | 30 to 49.3% | 19 to 19.5% | 21 to 33.4% | 16 to 41% | 27 to 36.6% | 34 to 59% |  | 4 to 30.7% | 26.3 to 33% | 13 to 22.7% | growth at 10 µM (SR): 7 to 12.1%; growth at 10 µM (UACC-257): 35 to 84.8%; growth at 10 µM (PC-3): 23 to 44.6% |
| CC(C)n1cc(C2=C(c3cn(C)c4ccccc34)C(=O)N(O)C2=O)c2ccccc21 | > 10 µM | > 10 µM | 7 µM | > 10 µM | > 10 µM | 127% | 95% | -16% | 97.1% | 77.2% | 81.8% | 98.3% | 96.9% | 61.5% | 78.2% | 99.6% | 99% | 95.2% | 127% | 91.6% | growth at 10 µM (SK-MEL-2): 86.6%; growth at 10 µM (PC-3): 88.4%; growth at 10 µM (BT-549): 93.2% |
| CC(C)n1cc(C2=C(c3c[nH]c4ccccc34)C(=O)N(O)C2=O)c2ccccc21 | > 10 µM | > 10 µM | > 10 µM | > 10 µM | > 10 µM | 123% | 147% | 2% | 102% | 102% | 88.2% | 95.3% | 99.9% | 58.8% | 90% | 111% | 93.5% | 101% | 84.5% | 77.1% | growth at 10 µM (SR): 85.7%; growth at 10 µM (SK-MEL-2): 86.8%; growth at 10 µM (PC-3): 99.7%; growth at 10 µM (BT-549): 99.7% |
| Cn1cc(C2=C(c3cn(C)c4ccccc34)C(=O)N(O)C2=O)c2ccccc21 | > 10 µM | > 10 µM | > 10 µM | > 10 µM | > 10 µM | 118% | 84% | -13% | 87.8% | 88.7% |  | 99.5% | 99.9% | 72.8% |  | 103% | 85.8% | 94.5% | 118% | 86.2% | growth at 10 µM (SR): 75.4%; growth at 10 µM (SK-MEL-2): 102%; growth at 10 µM (UACC-257): 88.3%; growth at 10 µM (BT-549): 107% |
